Here are results for 27 molecules from patent US8563742B2, “Substituted aminothiazole derivatives, pharmaceutical compositions, and methods of use” (High Point Pharmaceuticals, LLC, priority 2008, dated 2013).

One series concerns the target T1, human MC-4R (Homo sapiens, UniProt P32245).
T1 construct: expressed in transfected cells
The experiment in a line: Biological Assay: inhibition of AgRP functional interaction with MC-4R in presence of αMSH (cAMP production). It is filed as cell-based. To be noted: HEK293 cells expressing human MC-4R, AgRP83-132 and αMSH present. Here is the method: The following method is illustrative of techniques that may be employed to measure the ability of the compounds of Formula (I) to functionally modulate the binding of AgRP to melanocortin receptors. In particular, the assay below measures the ability of compounds of Formula (I) or pharmaceutically acceptable salts thereof to functionally modulate the binding of AgRP to MC-4R in the presence of a MC-4R agonist, such as alpha-MSH.
HEK293 cells stably expressing human MC-4R receptors were grown in high glucose Dulbecco's Modified Eagle Medium (DMEM) with 4500 mg glucose/L, L-glutamine, NaHCO3, pyrdoxin HCl, 10 mM HEPES (pH 7.4), 0.1 mM NEAA (non-essential amino acid medium) (GIBCO Cat#11140-050), 10% fetal bovine serum and 700 μg/mL G418. Cells were grown in T-225 flasks at 37° C. with CO2 and humidity control.
On the day of assay, cells were washed twice with phosphate buffered saline without calcium and magnesium (PBS) and incubated with 10 mL PBS until the cells were detached from the flask. The detached cells were centrifuged at 240 g for 5 min. The cell pellet was re-suspended in assay buffer (Earle's balanced salt solution (Sigma E3024) supplemented with 10 mM HEPES, pH 7.4, 0.5 mM IBMX and protease inhibitor cocktail (Roche, 1 complete tablet/75 mL buffer)).
The inhibitory or enhancement effect of compounds on AgRP activity was measured in a multi-component assay containing testing compounds, AgRP83-132 (human, Phoenix Pharma, cat no. 003-53), cells expressing MC-4R, and αMSH (Bachem, cat no. H-1075). Test compounds, AgRP and αMSH were diluted with assay buffer. Test compounds and AgRP were mixed to 4 times of the final concentration and incubated at room temperature for 30 min. Five μL of testing compound/AgRP solution followed with 10 μL of cells (20,000 cells/well) were added to each well of a 384-well reaction plate before 5 μL of αMSH was added. Cells were stimulated with αMSH for an additional 30 min at 37° C.
Stimulation of cells was stopped by adding a lysis buffer and cells were lysed. The intracellular concentration of cAMP may be measured by various techniques known to one of skill in the art including, but not limited to, fluorescence polarization (FP) and time-resolved fluorescence (TRF).
The inhibition was shown by an increase in MC-4R mediated cAMP production.
For orientation: Cyclic AMP is a second messenger, typically raised through Gs and lowered through Gi signalling.

Series [1] in a line: Pharmacokinetic screening in rats (plasma and brain). The following applies: rat, 5 mg/kg PO; for concentration at 2 h: male, Sprague Dawley, po, 5 mg/kg, 2 hour time point.
Procedure: Pharmacokinetic screening in rats was performed on various compounds to measure brain to plasma ratio at 2 hour time point. […] The parameters for the pharmacokinetic protocol were as follows.
Amount of compound: 5 mg/kg
Species: Rat; Strain: Sprague Dawley; Sex: Male
Diet Status: Overnight fasting
Number of Animals (n) for each time point: 2
Formulation: 0.1% CMC, 0.25% Tween 80 in distilled water
Each formulation was administered once by oral gavage using a gavage needle (18G-3, BrainTree Scientific, INC, USA) attached to a syringe. The dose volume was 5 mL/kg for all animals. The actual volume administered to each animal was calculated and adjusted based on the most recent body weight.
Blood samples (approximately 300 μL whole blood) was collected from each animal via tail vein except for terminal blood samples. Terminal blood samples were collected via cardiac puncture. All samples were collected into tubes containing lithium heparin (Multivette 600 LH-Gel, Sarstedt, Newton, N.C., USA). Following collection, the tubes were placed in refrigerator (maximum 30 minutes) or until centrifugation under refrigeration (at 2 to 8° C.) at 5000 g for 7 minutes. Each harvested plasma sample was then transferred into 1.2 mL polypropylene tubes, on the 96-Well Plate according to the 96-Well Plate plasma sample map and kept in freezer. Plasma samples were then analyzed for test substances.
Brain samples were collected immediately after the rats were euthanised at designated time points. Brain samples were rinsed with saline, blotted dry, and weighed. Brain samples were placed into individual containers and kept in freezer (−20° C.). Brain samples were then analyzed for test articles.
After analysis, all the plasma results were reported as ng/mL and brain sample results are reported as ng/g.
The mark [2] stands for this setting: read-out: Average EC50 (nM) in Biological Assay.
[3] abbreviates: plasma, Plasma - 2 hours (ng/mL).

Read-outs that look alike come from different tables or passages of the source.

T1 sequence (P32245 whole entry): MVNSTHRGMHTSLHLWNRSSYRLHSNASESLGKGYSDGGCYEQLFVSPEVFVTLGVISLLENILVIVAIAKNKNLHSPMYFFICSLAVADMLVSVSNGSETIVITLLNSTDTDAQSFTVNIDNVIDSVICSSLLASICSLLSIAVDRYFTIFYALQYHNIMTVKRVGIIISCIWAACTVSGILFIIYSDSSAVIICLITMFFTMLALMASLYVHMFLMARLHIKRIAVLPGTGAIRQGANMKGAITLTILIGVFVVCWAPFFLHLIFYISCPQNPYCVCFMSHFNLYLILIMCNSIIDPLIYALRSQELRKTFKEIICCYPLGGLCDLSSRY

Regarding `CCc1ccc(CN(CCC(=O)O)c2nc(C3CCCCC3)cs2)s1` [Example 2, 3-[(4-cyclohexyl-thiazol-2-yl)-(5-ethyl-thiophen-2-ylmethyl)-amino]-propionic acid], the EC50 (usually the concentration needed to bring the measured effect to its halfway point) at human MC-4R (setting [2]) is 135 nM. Moreover, the concentration at 2 h was found to be 80 ng/g in series [1] (brain, Brain - 2 hours (ng/g)) and 261 ng/mL in series [1] (setting [3]).

On to `CCc1ccc(CN(CCC(=O)O)c2nc(CC3CCCC3)cs2)s1` [Example 4, 3-[(4-Cyclopentylmethyl-thiazol-2-yl)-(5-ethyl-thiophen-2-ylmethyl)-amino]-propionic acid], for which the EC50 at human MC-4R (setting [2]) was 324 nM. Further, the concentration at 2 h in series [1] (brain, Brain - 2 hours (ng/g)) was determined as 98 ng/g; in series [1] (setting [3]) it was 590 ng/mL.

Turning to `CCc1ccc(CN(CCC(=O)O)c2nc(C3CCC(OC)CC3)cs2)s1` (stereo not shown) [Example 32, 3-{(5-Ethyl-thiophen-2-ylmethyl)-[4-(4-methoxy-cyclohexyl)-thiazol-2-yl]-amino}-propionic acid], the EC50 at human MC-4R (setting [2]) was determined as 2280 nM.

Take `Cc1ccc(C2(c3csc(N(CCC(=O)O)Cc4ccc(C)s4)n3)CCCC2)cc1` [Example 35, Sodium; 3-{(5-methyl-thiophen-2-ylmethyl)-[4-(1-p-tolyl-cyclopentyl)-thiazol-2-yl]-amino}-propionate]: the EC50 on human MC-4R (setting [2]) is 132 nM.

`CCc1ccc(CN(CCC(=O)O)c2nc(C3CCC(F)(F)CC3)cs2)s1` [Example 24, Sodium; 3-[[4-(4,4-difluoro-cyclohexyl)-thiazol-2-yl]-(5-ethyl-thiophen-2-ylmethyl)-amino]-propionate]: at human MC-4R (setting [2]), the EC50 worked out at 79 nM.

As for `CC(C)C1CCC(c2csc(N(CCC(=O)O)Cc3ccc(S(C)(=O)=O)s3)n2)CC1` (stereo not shown) [Example 37, 3-[[4-(4-Isopropyl-cyclohexyl)-thiazol-2-yl]-(5-methanesulfonyl-thiophen-2-ylmethyl)-amino]-propionic acid], the EC50 on human MC-4R (Average EC50 (nM) in Biological Assay) is 524 nM.

Take `Cc1ccc(CN(CCC(=O)O)c2nc(C3CCc4ccccc4C3)cs2)s1` (stereo not shown) [Example 14, 3-{(5-Methyl-thiophen-2-ylmethyl)-[4-(1,2,3,4-tetrahydro-naphthalen-2-yl)-thiazol-2-yl]-amino]-propionic acid]: on human MC-4R (setting [2]), the EC50 came to 602 nM.

In the case of `CSc1ccc(CN(CCC(=O)O)c2nc(C3CCC(C(C)(C)C)CC3)cs2)s1` (stereo not shown) [Example 29, Sodium; 3-[[4-(4-tert-butyl-cyclohexyl)-thiazol-2-yl]-(5-methylsulfanyl-thiophen-2-ylmethyl)-amino]-propionate], the EC50 on human MC-4R (setting [2]) worked out at 427 nM.

`CCc1ccc(CN(CCC(=O)[O-])c2nc(C3(C)CCC(C)CC3)cs2)s1.[Na+]` (stereo not shown) [Example 47, Sodium; 3-[[4-(1,4-dimethyl-cyclohexyl)-thiazol-2-yl]-(5-ethyl-thiophen-2-ylmethyl)-amino]-propionate]: the EC50 at human MC-4R (setting [2]) was determined as 58 nM. In addition, the concentration at 2 h in series [1] (brain, Brain - 2 hours (ng/g)) amounted to 886 ng/g; in series [1] (setting [3]), 2090 ng/mL. Also, the “Brain - 24 hours AUC (h * ng/g)” value in series [1] (24 hour study) is listed as “+ (values less than 5,000 h*ng/g)”.

For `Cc1ccc(CN(CCC(=O)O)c2nc(C3CCC(C(C)(C)C)CC3)cs2)s1` (stereo not shown) [Example 27, 3-[[4-(4-tert-Butyl-cyclohexyl)-thiazol-2-yl]-(5-methyl-thiophen-2-ylmethyl)-amino]-propionic acid], the EC50 on human MC-4R (setting [2]) is 114 nM.

`CCc1ccc(CN(CCC(=O)O)c2nc(CC3CCC(C)CC3)cs2)s1` (stereo not shown) [Example 15, 3-{(5-Ethyl-thiophen-2-ylmethyl)-[4-(4-methyl-cyclohexylmethyl)-thiazol-2-yl]-amino}-propionic acid]: the EC50 on human MC-4R (setting [2]) was found to be 221 nM.

With `CCc1ccc(CN(CCC(=O)O)c2nc(C3CCC(C(F)(F)F)CC3)cs2)s1` (stereo not shown) [Example 17, 3-{(5-Ethyl-thiophen-2-ylmethyl)-[4-(4-trifluoromethyl-cyclohexyl)-thiazol-2-yl]-amino}-propionic acid], the EC50 on human MC-4R (setting [2]) was determined as 259 nM.

On to `COC1CCC(c2csc(N(CCC(=O)O)Cc3ccc(C)s3)n2)CC1` (stereo not shown) [Example 30, 3-[[4-(4-Methoxy-cyclohexyl)-thiazol-2-yl]-(5-methyl-thiophen-2-ylmethyl)-amino]-propionic acid], for which, at human MC-4R (setting [2]), the EC50 was found to be 3890 nM.

Turning to `CCC1(c2csc(N(CCC(=O)O)Cc3ccc(C)s3)n2)CCC(C(C)C)CC1` (mixture of isomers) [Example 41, Sodium; 3-[[4-(1-ethyl-4-isopropyl-cyclohexyl)-thiazol-2-yl]-(5-methyl-thiophen-2-ylmethyl)-amino]-propionate], on human MC-4R (setting [2]), the EC50 amounted to 58 nM.

In the case of `Cc1ccc(CN(CCC(=O)O)c2nc(CC3CCC(C)(C)CC3)cs2)s1` [Example 64, 3-[[4-(4,4-dimethyl-cyclohexylmethyl)-thiazol-2-yl]-(5-methyl-thiophen-2-ylmethyl)-amino]-propionic acid], the 50% effective concentration (EC50) on human MC-4R (setting [2]) is 90 nM.

With `Cc1ccc(CN(CCC(=O)O)c2nc(C3(C)CCC(C)(C)CC3)cs2)s1` [Example 52, 3-[[4-(1,4,4-trimethyl-cyclohexyl)-thiazol-2-yl]-(5-methyl-thiophen-2-ylmethyl)-amino]-propionic acid], the EC50 at human MC-4R (setting [2]) was 267 nM.

For `CCc1ccc(CN(CCC(=O)O)c2nc(C3CCc4ccccc4C3)cs2)s1` (stereo not shown) [Example 13, 3-{(5-Ethyl-thiophen-2-ylmethyl)-[4-(1,2,3,4-tetrahydro-naphthalen-2-yl)-thiazol-2-yl]-amino}-propionic acid], the EC50 on human MC-4R (setting [2]) turned out to be 528 nM.

Regarding `CCCC1CCC(c2csc(N(CCC(=O)O)Cc3ccc(CC)s3)n2)CC1` (stereo not shown) [Example 22, 3-{(5-Ethyl-thiophen-2-ylmethyl)-[4-(4-propyl-cyclohexyl)-thiazol-2-yl]-amino]-propionic acid], the half-maximal effective concentration (EC50) at human MC-4R (setting [2]) is 394 nM.

Consider `CCc1ccc(CN(CCC(=O)O)c2nc(C3CC4CCC3C4)cs2)s1` (stereo not shown) [Example 1, Sodium; 3-[(4-bicyclo[2.2.1]hept-2-yl-thiazol-2-yl)-(5-ethyl-thiophen-2-ylmethyl)-amino]-propionate], for which the EC50 at human MC-4R (setting [2]) stood at 126 nM.

In the case of `Cc1ccc(CN(CCC(=O)O)c2nc(C3Cc4ccccc4C3)cs2)s1` [Example 12, 3-[(4-Indan-2-yl-thiazol-2-yl)-(5-methyl-thiophen-2-ylmethyl)-amino]-propionic acid], the EC50 on human MC-4R (setting [2]) was found to be 384 nM.

For `Cc1ccc(CN(CCC(=O)O)c2nc(CC3CCC(C)CC3)cs2)s1` (stereo not shown) [Example 16, 3-[[4-(4-Methyl-cyclohexylmethyl)-thiazol-2-yl]-(5-methyl-thiophen-2-ylmethyl)-amino]-propionic acid], the EC50 on human MC-4R (setting [2]) is 205 nM.

Consider `Cc1ccc(CN(CCC(=O)O)c2nc(C3CCC4(CCCC4)CC3)cs2)s1` [Example 62, 3-[(5-methyl-thiophen-2-ylmethyl)-(4-spiro[4.5]dec-8-yl-thiazol-2-yl)-amino]-propionic acid], for which, on human MC-4R (setting [2]), the EC50 was determined as 321 nM.

`CCc1ccc(CN(CCC(=O)O)c2nc(C3(CC(C)C)CCCC3)cs2)s1` [Example 43, 3-{(5-Ethyl-thiophen-2-ylmethyl)-[4-(1-isobutyl-cyclopentyl)-thiazol-2-yl]-amino}-propionic acid]: at human MC-4R (setting [2]), the EC50 came out at 173 nM.

As to `Cc1cc(CN(CCC(=O)O)c2nc(C3(CC(C)C)CCCC3)cs2)c(C)s1` [Example 44, 3-{(2,5-Dimethyl-thiophen-3-ylmethyl)-[4-(1-isobutyl-cyclopentyl)-thiazol-2-yl]-amino}-propionic acid], the EC50 at human MC-4R (setting [2]) turned out to be 191 nM.

Consider `Cc1ccc(CN(CCC(=O)O)c2nc(C3(C)CCC(C(C)(C)C)CC3)cs2)s1` (stereo not shown) [Example 50, 3-[[4-(4-tert-Butyl-1-methyl-cyclohexyl)-thiazol-2-yl]-(5-methyl-thiophen-2-ylmethyl)-amino]-propionic acid], for which the EC50 at human MC-4R (setting [2]) came out at 154 nM.

On to `CCc1ccc(CN(CCC(=O)O)c2nc([C@H]3CC[C@H](C(C)C)CC3)cs2)s1` [Example 10, Sodium; 3-[(5-ethyl-thiophen-2-ylmethyl)-[4-(4-trans-isopropyl-cyclohexyl)-thiazol-2-yl]-amino]-propionate], for which the EC50 at human MC-4R (setting [2]) worked out at 260 nM.

As to `CCc1ccc(CN(CCC(=O)O)c2nc(C3CCC(C(C)(C)C)CC3)cs2)s1` (stereo not shown) [Example 28, 3-[[4-(4-tert-Butyl-cyclohexyl)-thiazol-2-yl]-(5-ethyl-thiophen-2-ylmethyl)-amino]-propionic acid], the EC50 on human MC-4R (setting [2]) turned out to be 171 nM.
